Earlier results, collected in patent publication US20080305060A1, “AQUEOUS-ALCOHOLIC DEPIGMENTING GELS” (GALDERMA RESEARCH & DEVELOPMENT, priority 2005, published 2008).
Like-named read-outs stand apart in the source and are kept apart here.

Which Incidence of irritation (10% hydroquinone concentration) does the source give for Oc1ccc(O)cc1 [hydroquinone] here?
The Incidence of irritation was “relatively high”.

What about the Incidence of irritation (hydroquinone concentration of 2%) of the same compound?
Its Incidence of irritation is “virtually nonexistent”.

And the Incidence of irritation (preparations with a 5% dose of hydroquinone)?
The Incidence of irritation was “reduces greatly”.
